Results from publication PMC5607274, “An iterative compound screening contest method for identifying target protein inhibitors using the tyrosine-protein kinase Yes” (Scientific Reports, 2017).

Molecular target: T1, human recombinant Yes [a.a. 2–543 (end)] (Homo sapiens, UniProt P07947)
T1 construct: human recombinant Yes [a.a; 2–543 (end)]; purchased BPS Bioscience 40488
Assay: ADP-Glo kinase assay, inhibition rates of Yes phosphorylation activity (first and second screening)
Assay type: biochemical
Details: first screening; mean of n = 4 wells; 10 μmol L−1 compound
Outline: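 ADP-Glo luminescence measured inhibition of human recombinant Yes (a.a. 2–543) phosphorylation activity. In the first screen, each compound ran in 4 wells and inhibition rates were averaged. The second screen retested hits as compounds dissolved from fresh powder.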

T1 sequence (P07947 2-543): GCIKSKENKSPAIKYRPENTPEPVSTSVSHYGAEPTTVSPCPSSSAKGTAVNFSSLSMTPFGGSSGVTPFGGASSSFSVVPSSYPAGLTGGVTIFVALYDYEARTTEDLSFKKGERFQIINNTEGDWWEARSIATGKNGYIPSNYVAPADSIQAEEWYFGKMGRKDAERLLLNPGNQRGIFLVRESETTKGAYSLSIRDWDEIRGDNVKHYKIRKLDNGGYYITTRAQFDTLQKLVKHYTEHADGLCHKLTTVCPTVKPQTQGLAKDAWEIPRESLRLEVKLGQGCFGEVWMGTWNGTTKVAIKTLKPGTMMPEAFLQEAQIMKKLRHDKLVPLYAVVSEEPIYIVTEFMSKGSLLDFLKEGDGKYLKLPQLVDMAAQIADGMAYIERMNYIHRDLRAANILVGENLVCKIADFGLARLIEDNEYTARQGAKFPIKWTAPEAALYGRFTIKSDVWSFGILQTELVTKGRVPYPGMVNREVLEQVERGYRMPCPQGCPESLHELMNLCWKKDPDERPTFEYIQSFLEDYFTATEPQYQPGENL

Point of comparison: `CC(=O)[C@@H]1C[C@H](CC(=O)NCCc2ccn(-c3ccc(F)cc3)n2)C1(C)C` [Compound Z1675157483], “First screening IR (inhibition rate)” value 5%. Against it:
- Cc1cc(S(=O)(=O)N(C)CC(=O)N2CCC(O)CC2)cnc1Cl [Compound Z1591866613] — lower, -1%
- Cc1cc(C(NCC(=O)Nc2cccc(C(=O)N(C)C)c2)C(C)C)c(C)s1 (stereo not shown) [Compound Z1592563027] — lower, -2%
- CC(CN(C)Cc1ccccc1)Nc1nc(N)c2ccccc2n1 (stereo not shown) [Compound Z1593120476] — lower, -10%
- COCc1nnc(-c2cccc(-c3nc(-c4cccs4)no3)c2)o1 [Compound Z1601587562] — higher, 11%
- CC(O)(CNc1ccnc2c(F)cc(Br)cc12)CN1CCOCC1 (stereo not shown) [Compound Z1601616896] — lower, -21%
- O=C(NCC(Cc1ccccc1)C(=O)O)c1ccc(-n2ccnc2)cc1 (stereo not shown) [Compound Z1603513622] — higher, 15%
- CN(CCCc1nc2ccccc2[nH]1)C(=O)c1ccc(O)cc1F [Compound Z1614685203] — higher, 9%
- N#Cc1ccc(C(=O)OCc2ccc(Br)cn2)[nH]1 [Compound Z1616590793] — higher, 9%
- Cc1cc(NCc2nnc(C)n2C)c(C(N)=O)cc1F [Compound Z1618388683] — lower, -35%
- NC(=O)c1ccc2[nH]cc(C3CCN(C(=O)c4cccs4)CC3)c2c1 [Compound Z1624201749] — lower, -35%
- Cc1cc(N2CCCC(N3CCN(C(=O)c4ccncc4)CC3)C2=O)n(C)n1 (stereo not shown) [Compound Z1629496420] — higher, 17%
- COc1cc(Br)c(CN(C)CCc2cnccn2)c(OC)c1 [Compound Z1632805805] — higher, 7%
- CC1CC(CNC(=O)c2cccc(O)c2)CN1Cc1ccccc1 (stereo not shown) [Compound Z1633590863] — lower, 1%
- Cn1c(=O)[nH]c(=O)c2cc(C(=O)OCCNc3ncccc3C#N)cnc21 [Compound Z1633934253] — lower, -1%
- COc1cc(/C=C/C(=O)N2CCCC2c2c(C)nn(C)c2C)cc(Br)c1O (stereo not shown) [Compound Z1634598040] — higher, 41%
- Cc1ccc(-c2noc(/C=C/c3cncc(O)c3)n2)cc1F [Compound Z1642148240] — lower, -4%
- COc1ccc(-c2noc(/C=C/c3cncc(O)c3)n2)cc1 [Compound Z1642148255] — lower, 3%
- Oc1cncc(/C=C/c2nc(-c3ccc(Oc4ccc(F)cc4)nc3)no2)c1 [Compound Z1642148338] — lower, -13%
- Cc1ccc(NC2CCN(Cc3ccncc3)CC2)c(CN(C)C)c1 [Compound Z1642185485] — lower, 2%
- COC(=O)Nc1ccc(NC(=O)C2CC2c2ccc(C(C)C)cc2)cc1F (stereo not shown) [Compound Z1646916001] — higher, 7%
- CC(Nc1ccc(Oc2cccc3cccnc23)cc1)C(N)=O (stereo not shown) [Compound Z1651676792] — higher, 6%
- O=C(COc1ccccc1F)NCc1ccc2[nH]c(=O)[nH]c2c1 [Compound Z1654002148] — lower, 3%
- CC(O)C1CCN(C(=O)NCC2CC(C)N(Cc3ccccc3)C2)C1 (stereo not shown) [Compound Z1658298345] — lower, -9%
- CC(C)(C)n1ncc2c(NCCc3nnc4n3CCCC4)ncnc21 [Compound Z1661117530] — higher, 7%
- OC1CCC(Nc2ncnc3cccc(I)c23)CC1 (stereo not shown) [Compound Z1661333590] — higher, 10%
- COc1cccc(-c2cc(-c3ccc(C)cc3)c3ccccc3n2)c1 [Compound Z1664164245] — lower, -18%
- CCCCn1nc(C)c(C(=O)N2CCC(C)(CN3CCN(C)CC3)CC2)c1Cl [Compound Z1667221615] — higher, 29%
- CC(NC(=O)c1ccc2[nH]cnc2n1)c1ccc(-c2cncnc2)cc1 (stereo not shown) [Compound Z1669230171] — higher, 8%
- Cc1cc(F)cc2[nH]c(C(=O)NC3CN(C(=O)OC(C)(C)C)CC3C#N)cc12 (stereo not shown) [Compound Z1671371372] — higher, 6%
- CC1CCN(c2nc(N)nc3nc[nH]c23)CCN1Cc1ccccc1 (stereo not shown) [Compound Z1675288656] — higher, 48%
- O=C(NCCCc1c[nH]c2ccccc12)Nc1ccncc1F [Compound Z1677751393] — higher, 19%
- O=C(NCCN1CCc2ccccc2C1)Nc1ccncc1F [Compound Z1677754180] — lower, 0%
- O=C(NCc1cnn(Cc2ccccc2)c1)Nc1ccncc1F [Compound Z1677761301] — lower, 4%
- COc1ccc(Br)c(CN(C)C(C)C2CCN(C)CC2)c1 (stereo not shown) [Compound Z1682981267] — lower, 2%
- NC(=O)C(Nc1cnn(Cc2ccccc2)c1)c1ccc(F)cc1 (stereo not shown) [Compound Z1686719326] — lower, 0%
- Cc1cnc(C)c(NCc2cccc(Cn3ccnc3C)c2)n1 [Compound Z1687428428] — higher, 9%
- Cc1cnc(CCSc2ncc(-c3ccc(F)cc3)o2)cn1 [Compound Z1688195829] — higher, 15%
- CN(C)c1ccc(NC(=O)N(C)C2CS(=O)(=O)c3ccc(Cl)cc32)cn1 (stereo not shown) [Compound Z1688689058] — lower, -9%
- Nc1nc(N2CC=C(c3ccccc3F)CC2)c2[nH]cnc2n1 [Compound Z1699229618] — higher, 60%
- CC(C)COCCCNS(=O)(=O)CCCS(=O)(=O)N(C)C [Compound Z1702883776] — lower, -12%
- CN(C)S(=O)(=O)CCCS(=O)(=O)N(C)C1CCC1 [Compound Z1720728610] — lower, -6%
- c1ccc(-c2nc(NCc3ccc(-n4cncn4)cc3)no2)cc1 [Compound Z1722673239] — lower, -10%
- Cn1ccnc1C(O)(CCNC(=O)c1cccc(-c2cnc3[nH]c(=O)n(C)c3c2)c1)C(F)(F)F (stereo not shown) [Compound Z1723428243] — higher, 17%
- O=C(O)c1cccc(/C=C/c2ccnnc2)c1 [Compound Z1728621359] — lower, -9%
- C/C(=C/c1ccc2ncccc2c1)c1cnccn1 [Compound Z1728623559] — lower, 2%
- CC1CC(CNC(=O)c2ccc(O)cc2F)CN1Cc1ccccc1 (stereo not shown) [Compound Z1735017324] — lower, 2%
- Cn1cncc1CC(=O)Nc1ccc2nc(-c3cc(F)ccc3F)[nH]c2c1 [Compound Z1737110153] — higher, 6%
- Oc1cncc(/C=C/c2nc(-c3ccncc3)no2)c1 [Compound Z1739342675] — higher, 8%
- CC(C)Oc1cc(CN(c2ncnc3c2cnn3C)C2CC2)ccn1 [Compound Z1739489055] — lower, 3%
- CSc1ccc(C(C)N2CCCC(C(=O)N3CCOCC3)C2)cc1F (stereo not shown) [Compound Z1742902065] — higher, 26%
- CNC(=O)c1cccc(NCc2cc(C)ccc2O)n1 [Compound Z1743524859] — higher, 37%
- Cc1nccn1Cc1ccc(NC(=O)c2ncccc2O)cc1 [Compound Z1746485864] — higher, 55%
- CNc1nc(NC2CCOC2c2ccc(F)c(F)c2)ncc1Br (stereo not shown) [Compound Z1765170433] — lower, 3%
- CC1(NC(=O)OC(C)(C)C)CCN(C(=O)c2cc3c(cc2O)CCCC3)CC1 [Compound Z1769013356] — lower, -20%
- Cc1cc(N2CCN(C(=O)c3cc(Br)cn3C(C)C)CC2)n[nH]1 [Compound Z1784719533] — lower, -5%
- C#CC(COC)NS(=O)(=O)CCCS(C)(=O)=O (stereo not shown) [Compound Z1787994415] — lower, 4%
- Cc1nccn1-c1cncc(NCc2cc(-c3ccccc3)on2)n1 [Compound Z1798299891] — higher, 19%
- CCNC(=O)c1ccc(NC(C)C(O)c2ccc(F)cc2)nc1 (stereo not shown) [Compound Z1798329942] — higher, 35%
- CC(C)c1ccc(-n2cc(O)c(C(=O)NCC(C)N3CCCCC3=O)n2)cc1 (stereo not shown) [Compound Z1820642882] — lower, -3%
- Cc1occc1S(=O)(=O)CCCS(=O)(=O)C(C)C [Compound Z1822689954] — lower, -9%
- O=[N+]([O-])c1ccc(N2CCC(C(O)c3ncc[nH]3)CC2)nc1-c1ccccc1 (stereo not shown) [Compound Z1823608663] — lower, -51%
- CN1CCC(N(c2ccccc2)S(=O)(=O)c2cc(Cl)cc3c2OCC3)CC1 [Compound Z1833465604] — higher, 9%
- CN(c1cc(C#N)ccn1)S(=O)(=O)c1ccccc1S(C)(=O)=O [Compound Z1833478806] — higher, 7%
- CNS(=O)(=O)c1ccc2c(c1)nc(-c1cc(C#N)n(C)c1)n2C [Compound Z1837787694] — lower, -2%
- COc1cccc(-c2cc(-c3ccc(Cl)cc3)c3ccccc3n2)c1 [Compound Z1844441844] — higher, 48%
- Cc1ccc(-c2cc(-c3cccc(C)c3)nc3ccccc23)cc1 [Compound Z1844441892] — higher, 9%
